Patent US20220133894A1, “BISPHOSPHONATE-LINKED COMPOUNDS” (OREGON HEALTH & SCIENCE UNIVERSITY, priority 2019, published 2022)

Experiments:
[1] = system: MDA-MB-231 human breast cancer cells; assay: 7 day colony formation assay, chemotherapy with or without KBU2046; format: cell-based
Protocol: To assess the impact of cytotoxic chemotherapy on PCa growth kinetics seven-day soft agar colony formation assays and three-day MTT cell growth inhibition assays were performed as described by us ([…] et al., Cancer Lett 352, 179-186 (2014)). MTT assays were in replicates of N=3, and were repeated, soft agar assays were in replicates of N=2 and are presented as mean number of colonies, expressed as percent of untreated controls. For PC3-M PCa and MDA-MB-231 triple negative breast cancer cells, data are the mean±SD (N=2 replicates) number of colonies in 7 day colony formation assays. All data are expressed as the percentage of untreated control cells. Cells were treated with 10 μM KBU2046 or vehicle (CO), and the indicated concentration and type of chemotherapy.

PC3-M-luc cells = assay: PCa orthotopic implantation, primary tumor growth and lung metastasis; format: in vivo, mice; conditions: orthotopic PC3-M-luc, 150 mg/kg KBU2046 daily
Protocol: To assess the efficacy of a spectrum of docetaxel concentrations, mice received orthotopic implants of PC3-M-luc cells, were treated with 0, 10 or 20 mg/kg docetaxel, and tumor growth monitored with weekly IVIS imaging. […] Subsequently, mice with orthotopic implants of PC3-M-luc cells were treated with docetaxel, KBU2046, docetaxel+KBU2046 or vehicle, as denoted, and effects on primary tumor growth and lung metastasis quantified (FIGS. 2A, 2B, and 2C).
Cohorts of N=10 mice bearing orthotopic implants of PC3-M-luc cells were treated daily with 150 mg/kg KUB2046 (46), intraperitoneal docetaxel 7.5 mg/kg weekly (doc), the combination (doc+46), or with oral and intraperitoneal vehicle (CO). KBU2046 treatment began 3 days before implantation and docetaxel began 1 week after. (A) Lung metastasis measured by qPCR for human Alu sequences, expressed as percent control (B) Weekly IVIS imaging of tumor. (C) Tumor weight. * denotes P<0.05 for differences between cohorts denoted by bars. All data are mean±SEM.
PCa orthotopic implantation: Orthotopic implantation of 2.5×10^5 PC3M-luc into 7-8 week old male athymic mice was performed as previously described by us (5, 52 Xu et al., above; and Pavese et al., J Vis Exp, e50873 (2013)). Daily oral gavage treatment with 150 mg/kg KBU2046 or was initiated 3 days prior to implantation and continued throughout the duration of the study. Weekly IP injections with 7.5 mg/kg docetaxel or control were administered beginning one week post implantation. Primary tumor out growth was monitored via weekly IVIS imaging. At the completion of the study the primary tumor was resected and weighed and lungs were resected and snap frozen. To determine the human PCa metastatic burden in each mouse lung, the snap frozen tissue was pulverized, DNA isolated and Alu-sequencing performed as previously described (19). […] (SEQ ID NO: 3). The 144RH probe was labeled with a 5′ fluorescent reporter (6-FAM) and a 3′ fluorescent quencher (Black Hole Quencher). The relative content of human DNA was calculated with using the comparative CT method, CT (sample)-CT(negative control). All samples were run in triplicate and were repeated.

RAW 267.4 cells = assay: Osteoclast morphology and maturation (actin/DAPI immunofluorescence, TRAP staining); format: cell-based, mouse
From the text: Treatment of RAW 267.4 cells with KBU2046 induces several structural and functional changes. It reduces RANKL-mediated formation of multinucleated cells, and those that do form have lower numbers of nuclei (see 40× panels, FIG. 4B). The characteristic prominent actin ring (white arrow) surrounding the resorptive cavity (yellow arrow) is readily apparent in control cells treated with RANKL ligand, but is lacking in KBU2046-treated cells (100×, panels). Consistent with it inhibiting maturation of RAW 267.4 cells, TRAP staining is decreased in KBU2046-treated cells (FIG. 4C).
FIG. 4 represents the KBU2046 inhibition of osteoclast function. FIG. 4A compares effects on Raf1 activation. RAW 267.4 cells were treated with RANKL for 4 days, treated with 10 μM KBU2046 for the indicated time periods, and Western blot for the denoted proteins performed. (B) Effects on cell morphology. RAW 267.4 cells were treated with RANKL and with KBU2046 for 4 days, or not, and denoted, and stained for actin (green) and DAPI (blue); white arrow denotes an actin ring, yellow arrow a resorptive cavity. Representative immunofluorescent images are depicted. (C) Tartrate resistant acid phosphatase (TRAP) expression. Cells were treated as in B, stained for TRAP (denoted by presence of red), and representative images from light microscopy depicted. (D) Bone degradation. RAW 267.4 cells were plated onto Osteo Assay plates, treated with RANKL for 6 days and with KBU2046 (or vehicle for controls) as indicated and bone surface area quantified. Data are the mean±SEM (N=3 replicates) of bone surface area, expressed as the percentage of control cells; * denotes P<0.05 compared to control.
Raw 264.7 cells were grown in differentiation medium (described below), with or without KBU2046, for 4 days on a Chamber Slide (Nunc Lab-Tek). Chambers were washed once with PBS, followed by 10-minute fixation in cold 10% neutral-buffered formalin (VWR) and a post-fixation wash with PBS. […] The cells were then incubated for 2 hours at 4° C. in Dylight Phallodin (Cell Signaling technology, #12935) antibody diluted 1:40 in 1×PBS with 1% BSA and 0.3% Triton X-100. Subsequently, the slide was washed once with PBS, a coverslip mounted with ProLong Gold Antifade Reagent with DAPI (Cell Signaling Technology, #8961), and imaged on a Confocal Microscope (Nikon/Yokogawa Spinning Disc).

## O=C1c2ccccc2OCC1c1ccc(F)cc1 (stereo not shown) [KBU2046, 3-(4-fluorophenyl)chroman-4-one]
[1]; 10 μM KBU2046, MDA-MB-231 cells, FIG. 13
  effect on activity of adriamycin: does not inhibit
[1]; 10 μM KBU2046, MDA-MB-231 cells, FIG. 15
  effect on activity of vinblastine: does not inhibit
[1]; 10 μM KBU2046, MDA-MB-231 cells, FIG. 17
  effect on activity of taxol: does not inhibit
[1]; KBU2046 co-administered, MDA-MB-231 cells
  interference upon cytotoxic action of adriamycin, taxol and vinblastine: lack of interference
PC3-M-luc cells; docetaxel 7.5 mg/kg weekly
  decrease of tumor weight compared to control: no significant effect
PC3-M-luc cells; docetaxel 7.5 mg/kg weekly intraperitoneal
  decrease of lung metastasis compared to control (human Alu qPCR): 20%
RAW 267.4 cells; RANKL and KBU2046 for 4 days
  RANKL-mediated formation of multinucleated cells: reduces
  TRAP staining: decreased
  actin ring surrounding the resorptive cavity: lacking
RAW 267.4 cells; absence of RANKL
  cellular extensions of undifferentiated cells: markedly reduces
